Experimental data reported in patent US20260364056A1, “METHODS OF TREATMENT OF NON-PANCREATIC GASTROINTESTINAL CANCERS” (IONCTURA bv, priority 2023, published 2026).

Key:
Caco2 cells = assay: Cell viability assay (crystal violet); format: cell-based, human
Method: (§1) Human colorectal adenocarcinoma HT29 and Caco-2 cells, hepatocellular carcinoma HLE cells, cholangiocarcinoma RBE and KKU-M213 cells were purchased from the American […] Culture Collection (ATCC, Manassas, VA, USA). The hepatocellular carcinoma cell line HLF was purchased from JCRB Cell Bank (Japan). All cell lines were cultured in Dulbecco's Modified Eagle Medium (DMEM) supplemented with 10% foetal bovine serum (FBS), 1 mM pyruvate, 25 mM HEPES, 100 U/mL penicillin-streptomycin (all from Thermo Fisher Scientific, Waltham, MA, USA), and maintained in a humidified atmosphere at 37 °C containing 5% CO2. The medium was changed every three days. Oleoyl-LPA was purchased from Avanti Polar Lipids (Birmingham, AL).
(§2) Cells were seeded in 96-well plates at a density of 2000 cells/well in 10% FBS supplemented medium. After 24 h, medium was removed, the cells washed with PBS and cultured in the presence or absence of FBS and of different concentrations of Compound land LPA. After the time set for the experiment, the cells were fixed with a 4% PFA solution and stained with 0.02% crystal violet for 10 min. Subsequently the plates have been washed with water to remove excess dye. The cell-bound dye was redissolved in 1% SDS and the optical density was measured at λ=570 with a iMark™ Microplate Absorbance Reader (Bio-rad).
(§3) FIGS. 2A and 2B show the effect of Compound 1 on cell proliferation in the absence of FBS and in the presence of 10% FBS. […] Cells were grown in serum free culture medium or in presence of 10% FBS and incubated with increasing Compound 1 concentrations or with DMSO (control cells) for 24, 48 and 72 hours. After fixation, proliferation was assessed by crystal violet staining method. *P<0.05.
(§4) To evaluate the anti-proliferative/cytotoxic effects of Compound 1, six different cancer tumour cell lines were treated developed from cholangiocarcinoma (CCA), hepatocellular carcinoma (HCC) and colorectal cancer (CRC), with increasing concentration of the Compound 1 ranging from 10 μM up to 50 μM and at different times of incubation. After 24, 48 and 72 hours of drug treatment, attached cells were fixed and stained with crystal violet dye. This method is used to evaluate the effect of chemotherapeutics or other anti-cancer drugs on cell survival and proliferation. In the first experiments, Compound 1 was administered to cells in culture medium supplemented with 10% FBS. […] To test the hypothesis that the presence of serum, and consequently the endogenous LPA, could interfere with the Compound 1 activity, all the cancer cells were treated with Compound 1 at concentration ranging from 1 μM up to 12 μM, in the presence or absence of 10% FBS.

HLE cells [1] = assay: Cell viability assay (crystal violet); format: cell-based, human
Method: as §1, §2, §3, §4

HT-29 cells = assay: Cell viability assay (crystal violet); format: cell-based, human
Method: as §1, §2, §3, §4

KKU-M213 cells [2] = assay: Cell viability assay (crystal violet); format: cell-based, human
Method: as §1, §2, §3, §4

RBE cells = assay: Cell viability assay (crystal violet); format: cell-based, human
Method: as §1, §2, §3, §4

HLF cells = assay: Cell viability assay (crystal violet); format: cell-based
Method: as §1, §2, §3
To evaluate the anti-proliferative/cytotoxic effects of Compound 1, six different cancer tumour cell lines were treated developed from cholangiocarcinoma (CCA), hepatocellular carcinoma (HCC) and colorectal cancer (CRC), with increasing concentration of the Compound 1 ranging from 10 μM up to 50 μM and at different times of incubation. […]

HLE cells [3] = assay: Wound healing assay; format: cell-based; settings: Homo sapiens, serum-free, read-out: inhibition of cell migration
Method: (§5) Cells were seeded in a 12-well plate in 10% FBS medium and grown to reach a 80-90% confluence. Then, a scratch was made on the cell monolayer by using a p200 pipette tip. The plate was washed with sterile PBS to remove the debris and on the outer bottom of the plate were created markings with a tip marker, used as reference points. Each cell line was incubated with medium without FBS and containing increasing concentrations of Compound 1 (1-3-9-12 μM). Images were acquired at 0, 24 and 48 h by using a confocal microscope Nikon Eclipse Ti2 in bright field microscope and analysed with image-J. Image-J software was used to measure the scratched area. Cell migratory ability of wound-healing was assessed using the following formula: [(wound area at 0 h)−(wound area at indicated time)]/(wound area at 0 h).
(§6) Images were taken at time 0, 24 h and 48 h and cell migration into the cell-free region (outlined) was quantified.
(§7) Tumor progression is characterized by an enhanced cell motility and invasiveness. To expand upon the knowledge of the effects of Compound 1 on HLE, KKU-m213 and HT-29 cells, their migratory activity was assessed when treated with Compound 1 by using both, a wound healing and a transwell migration assay. Cells were seeded in a 12-well plate and, when a confluent monolayer was reached, an artificial gap was generated between the cells using a pipette tip. […]

KKU-M213 cells [4] = assay: Wound healing assay; format: cell-based; settings: Homo sapiens, serum-free, respect to control, after 24 h and 48 h, p<0.05, read-out: reduction in wound closure
Method: as §5, §6, §7

[5] = tested on: xenografted tumours of KKUM-213 cells and human cancer-associated fibroblasts; assay: Tumour growth in vivo, mouse xenograft model of cholangiocarcinoma; settings: 10 mg/kg twice daily, oral gavage, from 5th day, vs vehicle, n=5, Mann-Whitney P<0.05
Method: To further explore the activity of Compound 1 on gastrointestinal cancer cells in vivo, the effectiveness in a mouse model of cholangiocarcinoma was investigated. Xenografted tumours were produced by co-injection of KKUM-213 cells and human cancer-associated fibroblasts (CAFs). Starting from the 5th day the mice were treated twice daily with Compound 1 (10 mg/kg) or vehicle (1% (w/v) methylcellulose in water) by oral gavage. The tumour volumes were monitored twice a week until the animals were sacrificed. […] Data are presented as the mean±SD (n=5 mice per group; Mann-Whitney test:*P<0.05).

ATX = settings: cited from earlier work
lung fibrosis = settings: compared with GLPG1690; cited from earlier work
[6] = 1 μM up to 12 μM, 10% FBS, 24, 48 and 72 h
[7] = 3 to 12 μM, absence of FBS, evident after 48 h, stronger after 72 h
[8] = 30 to 50 μM, medium with 10% FBS

C[C@H](NC(=O)CCc1nc2cccnc2n1Cc1ccc(OC(F)(F)F)cc1)c1ccc(Cl)cc1 [Compound 1, N-[(S)-1-(4-chloro-phenyl)-ethyl]-3-[3-(4-trifluoromethoxy-benzyl)-3H-imidazo[4,5-b]pyridin-2-yl]-propionamide]
effect on cell proliferation (Caco2 cells; [6]): generally the same as the control | cytotoxic effect / inhibition of cell proliferation (Caco2 cells; [7]): significant (p<0.05) cytotoxic effect in a dose-dependent manner | cytotoxic effect (Caco2 cells; [8]): significant (p<0.05) cytotoxic effect | effect on cell proliferation (HLE cells [1]; [6]): generally the same as the control | effect of FBS on activity of Compound 1 (HLE cells [1]; 9 μM, 72 h, 5% FBS): completely abolishing the Compound 1 effect | cell inhibition compared to control (HLE cells [1]; 9 μM, 72 h, no FBS): clear difference in the cell inhibition compared to the control | effect of FBS on activity of Compound 1 (HLE cells [1]; 9 μM, 72 h, starting at 2% FBS): significantly (p<0.05) reduced the activity of Compound 1 | cytotoxic effect / inhibition of cell proliferation (HLE cells [1]; [7]): significant (p<0.05) cytotoxic effect in a dose-dependent manner | cytotoxic effect (HLE cells [1]; [8]): significant (p<0.05) cytotoxic effect | effect on cell proliferation (HT-29 cells; [6]): generally the same as the control | effect of FBS on activity of Compound 1 (HT-29 cells; 9 μM, 72 h, 5% FBS): completely abolishing the Compound 1 effect | cell inhibition compared to control (HT-29 cells; 9 μM, 72 h, no FBS): clear difference in the cell inhibition compared to the control | effect of FBS on activity of Compound 1 (HT-29 cells; 9 μM, 72 h, starting at 2% FBS): significantly (p<0.05) reduced the activity of Compound 1 | cytotoxic effect / inhibition of cell proliferation (HT-29 cells; [7]): significant (p<0.05) cytotoxic effect in a dose-dependent manner | cytotoxic effect (HT-29 cells; [8]): significant (p<0.05) cytotoxic effect | effect on cell proliferation (KKU-M213 cells [2]; [6]): generally the same as the control | effect of FBS on activity of Compound 1 (KKU-M213 cells [2]; 9 μM, 72 h, 5% FBS): completely abolishing the Compound 1 effect | cell inhibition compared to control (KKU-M213 cells [2]; 9 μM, 72 h, no FBS): clear difference in the cell inhibition compared to the control | effect of FBS on activity of Compound 1 (KKU-M213 cells [2]; 9 μM, 72 h, starting at 2% FBS): significantly (p<0.05) reduced the activity of Compound 1 | cytotoxic effect / inhibition of cell proliferation (KKU-M213 cells [2]; [7]): significant (p<0.05) cytotoxic effect in a dose-dependent manner | cytotoxic effect (KKU-M213 cells [2]; [8]): significant (p<0.05) cytotoxic effect | effect on cell proliferation (RBE cells; [6]): generally the same as the control | cytotoxic effect / inhibition of cell proliferation (RBE cells; [7]): significant (p<0.05) cytotoxic effect in a dose-dependent manner | cytotoxic effect (RBE cells; [8]): significant (p<0.05) cytotoxic effect | effect on cell proliferation (HLF cells; [6]): generally the same as the control | cytotoxic effect / inhibition of cell proliferation (HLF cells; [7]): significant (p<0.05) cytotoxic effect in a dose-dependent manner | cytotoxic effect (HLF cells; [8]): significant (p<0.05) cytotoxic effect | inhibition at 3 µM (HLE cells [3]): 40% | inhibition at 9 µM (KKU-M213 cells [4]): ~50% | tumour progression (tumour volume) [5]: significantly reduces tumour progression | ATX inhibition (ATX): inhibits ATX with high selectivity | reduction in fibrosis score (lung fibrosis): greater reduction in fibrosis score compared with GLPG1690
